Consider four compounds from ChEMBL document CHEMBL1121547 (J Med Chem, 1980).

The target of experiment [1] is GABA-A receptor; anion channel (Rattus norvegicus) (UniProt O09028+P15431+P18506+P18508+P19969+P20236+P23574+P23576+P28471+P28473+P30191+P62813+P63079+P63138+Q91ZM7+Q9ES14). In words: Relative binding affinity for sodium-independent Gamma-aminobutyric acid receptor synaptic membrane binding site in rat brain tissue. In kind it is tissue-based.
In experiment [2] the target is GABA-A receptor; anion channel. In words: Displacement of [3H]gamma-aminobutyric acid from sodium-independent Gamma-aminobutyric acid (GABA-A) receptor synaptic membrane binding sites from rat brain tissue. (In general: Displacement assays read how much labelled ligand stays bound in the presence of the test substance.)
The target of experiment [3] is Gamma-aminobutyric acid receptor subunit gamma-1 (Rattus norvegicus, UniProt P23574). The experiment in a line: […] of [3H]GABA at Gamma-aminobutyric acid receptor in rat brain membranes at 0.01 uM. Type of experiment: cell membranes.
Gamma-aminobutyric acid receptor subunit gamma-1, sequence (P23574 whole entry): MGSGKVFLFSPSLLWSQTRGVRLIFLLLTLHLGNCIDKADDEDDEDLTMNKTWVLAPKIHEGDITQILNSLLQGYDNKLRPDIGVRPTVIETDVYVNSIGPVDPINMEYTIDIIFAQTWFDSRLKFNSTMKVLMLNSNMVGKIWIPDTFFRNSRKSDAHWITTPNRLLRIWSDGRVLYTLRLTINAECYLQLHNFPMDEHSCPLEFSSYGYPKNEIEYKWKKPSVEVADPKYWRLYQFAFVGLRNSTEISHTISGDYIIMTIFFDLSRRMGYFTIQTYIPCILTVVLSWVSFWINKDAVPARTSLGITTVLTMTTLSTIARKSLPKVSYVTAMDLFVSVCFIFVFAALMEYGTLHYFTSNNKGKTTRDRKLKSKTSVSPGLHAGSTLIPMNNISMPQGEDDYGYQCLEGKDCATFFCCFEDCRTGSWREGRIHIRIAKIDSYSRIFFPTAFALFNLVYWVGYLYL

For `NCc1cc(O)no1`, the Relative affinity in experiment [1] came to 6.3. `NCC1CCC1C(=O)O` (racemic): in experiment [2], the IC50 turned out to be 0.00029 M l-1. Also, the Relative affinity in experiment [1] is 6.9. With `CN1CCc2cc3c(cc2[C@H]1[C@@H]1OC(=O)c2c1ccc1c2OCO1)OCO3` [BICUCULLINE], in experiment [3], the IC50 was found to be 3800 nM. This compound also returned a Relative affinity in experiment [1] of 0.0056.

For `NCc1cc(=O)[nH]o1` [MUSCIMOL], the IC50 in experiment [2] (read-out: IC50) came out at 3.2 nM.
